# Laboratory results taken from patent EP4799701A2, “PYRIMID-2-YL-PYRAZOLE COMPOUNDS AS IRAK INHIBITORS” (Rigel Pharmaceuticals, Inc., priority 2022, dated 2023).
# Tested on: TLR4-induced IL-23
# Test: LPS induced IL23p19 in THP-1 cells (IFNγ primed), IL-23p19 sandwich ELISA
# Type: cell-based, human
# Details: human THP-1 cells; result in words
# Source text: LPS induced IL23p19 in THP-1 cells (with IFNy primed) Assay
# THP-1 Cells (ATCC, Cat# TIB-202), Dimethyl Sulfoxide (DMSO) (Sigma-Aldrich, Cat# D2650), RPMI 1640 (Cellgro, Cat# 10-040-CM), Fetal Bovine Serum (Sigma, Cat# F4135), Albumin From Bovine Serum (BSA) (Sigma-Aldrich, Cat#A7906), LPS (Serotype K-235, Sigma, Product Number L 2143), IFNγ (Peprotech, Cat# 300-02), Capture antibody: Human IL-23p19 ELISA (e-Bioscience, Cat. # 14-7238-85), Detection antibody: Primary Mouse Biotinylated anti-human IL-12(p40/p70) (e-Bioscience, Cat. # 13-7129-85), Secondary HRP-conjugated Streptavidin (R&D Systems, Cat#DY998), 1x PBST Washing Buffer (PBS-Tween tablet) (VWR International, Cat#80058-558), ELISA Blocking Buffer (PBS with 1% BSA), ELISA Dilution Buffer (PBS with 1% BSA), 384 Well Flat-Bottom, MaxiSorp Black Immuno Plates (Thermo Scientific, Cat# 12-565-346), 384 Well Flat-Bottom, White Tissue Culture Plates (Thermo Scientific, Cat# 12-565-343), Super Signal ELISA Pico Chemiluminescent Substrate (Thermo Scientific, Cat#37070), Cell Titer Glo reagent (Promega, Cat#G7573), Positive control, IKK2VI inhibitor (Calbiochem, Cat#401483), AquaMax 4000 plate washer (Molecular Devices), Luminometer, Wallac Victor2 1420 Multilabel Counter.
# On day 1, 50K/well THP-1 cells were seeded and primed with IFNγ (50ng/mL) in 384-well plates for about 18 hours in RPMI media with 10%FBS. On day 2, the compound was serially diluted in DMSO from 5 mM in 3-fold dilutions, and then diluted 1:125 in RPMI media with 10%FBS. […] IL-23p19 protein in 70 µL/well of supernatant was measured by sandwich ELISA, and 25 µl/well Cell Titer Glo reagent was added to the remaining cells to measure compound toxicity.
# Maxisorp immuno ELISA plates were pre-coated with 25 µL/well of anti-IL-23p19 capture antibody (2.5ug/mL) in PBS overnight at room temperature. […] The plates were read with a luminometer, and the chemiluminescence values were entered into Athena (Rigel) for curve fitting, EC50 calculation, and database storage. […]
smiles,measurement,value
"CCO[C@H]1CC[C@H](n2cc(NC(=O)c3csc(-c4cn[nH]c4)n3)c(-c3ncccn3)n2)CC1 [Compound I-1, N-(1-((1r,4r)-4-ethoxycyclohexyl)-3-(pyrimidin-2-yl)-1H-pyrazol-4-yl)-2-(1H-pyrazol-4-yl)thiazole-4-carboxamide]",TLR4-induced IL-23 production,inhibits
